In paper PMC7551400, “Moderate Wine Consumption Reduces Faecal Water Cytotoxicity in Healthy Volunteers” (Nutrients, 2020):
Read-outs that look alike come from different tables or passages of the source.

How the values were obtained:
HCT 116 cells = assay: MTT cytotoxicity assay, reference compounds; type: cell-based; settings: Homo sapiens, read-out: Toxicity (IC50 value)
Protocol: (§1) Two human colon adenocarcinoma cell lines, HT-29 (ATCC® HTB-38TM) and […]), were used to evaluate cell cytotoxicity. […] Biowest Europe, Nuaillé, France). […] Cells were grown in 75 cm^2 flasks (Corning Flask, Corning, NY, USA) at 37 °C and in a 5% CO2 atmosphere and the media were renewed every 3 days. […] Cells were seeded at a density of 3.6 × 10^5 cells/mL on well plates, and washed with warm DPBS. […] After that, supernatants were removed from the wells, and MTT (Sigma-Aldrich, St. Louis, MO, USA) solution (0.5 mg/mL) was added (100 μL/well). The plates were immediately incubated for 3 h in darkness. After this time, MTT reagent was aspirated and formazan crystals were diluted in 100 μL of dimethyl sulfoxide (DMSO; Sigma-Aldrich, St. Louis, MO, USA). Absorbance at 570 nm was measured on a Multiskan plate reader (Thermo Scientific, Newington, NH, USA). Cell viability (%) was calculated as Abssample/Abscontrol × 100. Assays were performed in triplicate and three independent experiments were carried out.

HT-29 cells [1] = assay: MTT cytotoxicity assay, reference compounds; type: cell-based; settings: Homo sapiens, read-out: Toxicity (IC50 value)
Protocol: as §1

HT-29 cells [2] = settings: cited from earlier work
HT-29 Glc–/þ cell line = tested on: HT-29 Glc–/þ cell line; set-up: method as in PMID 25881551; settings: 24 h incubation; cited from earlier work
Caco 2 cells = tested on: Caco 2 cells; set-up: method as in PMID 30359553; settings: 24 h of incubation; cited from earlier work

| SMILES | IC50 (HCT 116 cells; HCT-116, 4 h) [mM] | IC50 (HCT 116 cells; HCT-116, 24 h) [mM] | IC50 (HT-29 cells [1]; HT-29, 4 h) [mM] | IC50 (HT-29 cells [1]; HT-29, 24 h) [mM] | Concentration at which compound became cytotoxic (HT-29 cells [2]) [µM] | IC50 (HCT 116 cells; HCT 116, 4 h incubation, MTT) [mM] | IC50 (HCT 116 cells; HCT 116, 24 h incubation, MTT) [mM] | IC50 (HT-29 cells [1]; HT-29, 4 h incubation, MTT) [mM] | IC50 (HT-29 cells [1]; HT-29, 24 h incubation, MTT) [mM] | Concentration with cytotoxicity effects (HT-29 Glc–/þ cell line) [µM] | Concentration from which a cytotoxic effect was exerted (HT-29 cells [2]; 24 h of incubation) [µM] | Concentration from which a cytotoxic effect was exerted (Caco 2 cells) [µM] |
| --- | --- | --- | --- | --- | --- | --- | --- | --- | --- | --- | --- | --- |
| Oc1ccccc1 [Phenol] | 23.8 | 11.4 | 15.8 | 6.16 | 1250 |  |  |  |  |  |  |  |
| Cc1ccc(O)cc1 [p-Cresol, p-cresol] |  |  |  |  |  | 5.64 | 4.16 | 5.4 | 2.13 | 800 | ≥ 3000 | ≥ 3000 |
